Consider 2 compounds from ChEMBL document CHEMBL1137140, “Synthesis and biological evaluation of the major metabolite of atomoxetine: elucidation of a partial kappa-opioid agonist effect” (Bioorg Med Chem Lett, 2004).

pIC50: −log10 of the molar value.

One assay has as its target Nociceptin receptor (Homo sapiens, UniProt P41146). Kind of assay: Inhibitory activity against Opioid receptor like 1 expressed in HEK293 cells. The class given is cell-based.
A short description of assay [1]: Inhibitory activity against Opioid receptor mu 1 expressed in HEK293 cells. The assay is classed as cell-based, Homo sapiens.
The nature of assay [2]: Inhibitory activity against Opioid receptor delta 1 expressed in HEK293 cells. The assay is classed as cell-based, Homo sapiens.
Assay [3] can be described thus: Inhibitory activity against Opioid receptor kappa 1 expressed in HEK293 cells. The assay is classed as cell-based, Homo sapiens.

Chain of Nociceptin receptor (P41146 whole entry): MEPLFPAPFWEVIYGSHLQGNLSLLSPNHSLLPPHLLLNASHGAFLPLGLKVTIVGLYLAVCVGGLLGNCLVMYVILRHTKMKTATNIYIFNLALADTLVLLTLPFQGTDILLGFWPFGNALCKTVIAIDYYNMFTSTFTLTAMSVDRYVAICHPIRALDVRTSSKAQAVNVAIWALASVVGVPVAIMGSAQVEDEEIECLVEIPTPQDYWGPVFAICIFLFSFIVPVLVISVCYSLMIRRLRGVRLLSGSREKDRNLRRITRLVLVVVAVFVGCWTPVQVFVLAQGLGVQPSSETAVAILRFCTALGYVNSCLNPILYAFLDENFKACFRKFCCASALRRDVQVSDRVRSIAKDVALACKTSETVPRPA

`CNCC[C@@H](Oc1ccccc1C)c1ccccc1` [ATOMOXETINE]: the pIC50 (commonly −log10 of the IC50, conventionally taken in molar units) on Nociceptin receptor was less than 5.30; in assay [1] it was 5.38; in assay [2], less than 5.30; in assay [3], 5.36.
For `CNCC[C@@H](Oc1ccc(O)cc1C)c1ccccc1`, the negative-log IC50 (pIC50) was less than 5.30 against Nociceptin receptor, 6.79 in assay [1], 5.83 in assay [2] and 7.06 in assay [3].
